Laboratory results: PMC3591448, “Profile of the GSK Published Protein Kinase Inhibitor Set Across ATP-Dependent and-Independent Luciferases: Implications for Reporter-Gene Assays” (PLoS ONE, 2013)
pIC50: −log10 of the molar value. Like-named read-outs stand apart in the source and are kept apart here.

Legend:
[1] = biological target: firefly luciferase, Photinus pyralis (FLuc) (Photinus pyralis, UniProt P08659); experiment: biochemical; format: biochemical; conditions: for FLuc Parameters Hill Coef: Hill equation fit of CRC; for Emax: response relative to PTC124 control inhibitor, negative = inhibition, read-out: FLuc Parameters Efficacy
Chain of firefly luciferase, Photinus pyralis (FLuc) (P08659 whole entry): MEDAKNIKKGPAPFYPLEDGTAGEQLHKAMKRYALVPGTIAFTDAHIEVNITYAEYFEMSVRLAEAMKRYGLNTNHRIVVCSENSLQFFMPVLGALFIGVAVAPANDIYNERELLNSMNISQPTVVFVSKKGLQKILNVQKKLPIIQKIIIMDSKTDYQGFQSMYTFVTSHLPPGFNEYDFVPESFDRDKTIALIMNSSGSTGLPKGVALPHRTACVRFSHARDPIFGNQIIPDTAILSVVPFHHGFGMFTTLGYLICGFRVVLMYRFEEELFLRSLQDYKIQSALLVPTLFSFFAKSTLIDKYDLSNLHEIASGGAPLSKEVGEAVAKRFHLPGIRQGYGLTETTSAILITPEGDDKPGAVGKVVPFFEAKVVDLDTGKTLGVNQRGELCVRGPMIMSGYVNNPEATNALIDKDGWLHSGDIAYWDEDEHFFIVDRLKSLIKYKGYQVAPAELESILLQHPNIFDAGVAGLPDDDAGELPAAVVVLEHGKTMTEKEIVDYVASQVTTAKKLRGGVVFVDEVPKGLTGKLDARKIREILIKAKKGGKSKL
Description: (§1) The bioluminescence outputs were measured by an EnVision reader (PerkinElmer, Wellesley, MA). Due to the relatively short luminescence duration of the RLuc assay, dispense time constants were set to match closely to the read time of the plate reader. As a result, each individual well was read with approximately the same time delay from reagent dispense to signal acquisition. See Table 1 for the 1536-well assay protocols.
(§2) Data from each assay was normalized plate-wise to corresponding intraplate controls as described previously, [17]. The same control data sets were also used for the calculation of Z′ factors from each assay. In all assays, wells containing DMSO were used as no-response controls. For the FLuc enzymatic assay, each compound-treated well on the plate was normalized to the average readings of n = 24 PTC124 treated wells and n = 48 DMSO wells from the same plate. Wells were scaled to a full range of DMSO and zero, and then normalized using the maximum response observed in the screen as 100% activity. For the RLuc enzymatic assay, n = 24 BTS treated wells for the positive control, n = 48 DMSO. MSR values were calculated using the cumulative potency differences of the de-interleaved duplicate control titrations from each plate as previously described. The normalized data from each assay plate set was corrected using DMSO-only treated assay plates read at the start and end of each assay run, and the resulting inter-plate titration data fit, using in-house software, to the standard Hill equation and dose-response curves automatically classified as described previously.
(§3) The curve classification scheme for assignment of resulting curve-fit data into CRC classes was according to Inglese et al. as follows: class 1 curves (far left) display two asymptotes, an inflection point, and r^2≥0.9; subclasses 1a vs. 1b are differentiated by full (>80%) vs. partial (≤80%) response. Class 2 curves (second from left) display a single left-hand asymptote and inflection point; subclasses 2a (or 2.1) and 2b (2.2) are differentiated by a max response and r^2, >80% and >0.9 or <80% and <0.9, respectively. Class 3 curves (second from right) have a single left-hand asymptote, no inflection point, and a response >3SD from the mean activity of the sample field.

[2] = biological target: T1, Renilla luciferase (RLuc) (Renilla reniformis, UniProt P27652); experiment: RLuc enzymatic assay (purified enzyme, qHTS, 1536-well); format: biochemical; conditions: 1 nM RLuc, 5 µM coelenterazine-H
T1 sequence (P27652 1-311): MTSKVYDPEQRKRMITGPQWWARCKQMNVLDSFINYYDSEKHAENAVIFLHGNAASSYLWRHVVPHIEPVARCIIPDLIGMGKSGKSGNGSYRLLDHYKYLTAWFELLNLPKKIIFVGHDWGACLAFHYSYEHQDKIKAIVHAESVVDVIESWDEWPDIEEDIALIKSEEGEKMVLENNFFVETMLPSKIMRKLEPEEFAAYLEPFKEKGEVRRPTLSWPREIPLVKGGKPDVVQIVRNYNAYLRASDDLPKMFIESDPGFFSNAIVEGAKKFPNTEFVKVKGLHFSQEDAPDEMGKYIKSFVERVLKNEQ
Description: as §1, with “1 µL of purified luciferase was then dispensed into each well for final concentrations 10 nM FLuc or 1 nM RLuc. The” for “The”
as §2, §3

CDK2 = conditions: ref Bramson, H. N., et al., 2001; read-out: PKI IC50 (µM), CDK2; cited from earlier work
LCK = tested on: LCK; set-up: method as in Bamborough, P., et al. 2007; conditions: ref Bamborough, P., et al. 2007; read-out: PKI IC50 (µM), LCK; cited from earlier work
TRKA = tested on: TRKA; set-up: method as in Wood, E.R., et al. 2004; conditions: ref Wood, E.R., et al. 2004; read-out: PKI IC50 (µM), TRKA; cited from earlier work
JNK3 = tested on: JNK3; set-up: method as in Angell, R.M., et al. 2007; conditions: ref Angell, R.M., et al. 2007; read-out: PKI IC50 (µM), JNK3; cited from earlier work
RHO = tested on: RHO; set-up: method as in Stavenger, R. A., et al. 2007; conditions: ref Stavenger, R. A., et al. 2007; read-out: PKI IC50 (µM), RHO; cited from earlier work
p38 = tested on: p38; set-up: method as in Angell, R.M., et al. 2008; conditions: ref Angell, R.M., et al. 2008; read-out: PKI IC50 (µM), p38; cited from earlier work
GSK3β = conditions: ref Peat, A. J., et al., 2004; read-out: PKI IC50 (µM), GSK3β; cited from earlier work
VEGFR = tested on: VEGFR; set-up: method as in Sammond, D.M., et al. 2005; conditions: ref Sammond, D.M., et al. 2005; read-out: PKI IC50 (µM), VEGFR; cited from earlier work
[3] = 10 nM FLuc, 10 µM D-luciferin, 10 µM ATP, read-out: FLuc Parameters IC50
[4] = Figure 3, read-out: IC50 (FLuc)
[5] = Figure 2b, representative structures of clusters, read-out: FLuc IC50
[6] = Figure 4b, read-out: FLuc (IC50)
[7] = Figure 2b, representative structures of clusters

Structure (SMILES) | pIC50 [1, 3] | FLuc Parameters Hill Coef [1] | pIC50 ([1]; Table 3, read-out: FLuc IC50) | Emax [1] | RLuc Curve Class [2] | other results
COc1ccc(Nc2ncc(-c3ccccc3)o2)cc1OC [GW575533A] | 5.24 | 1.17 | 5.24 | 90% | 4 | –
C/C(Nc1ccc(S(N)(=O)=O)cc1)=C1/C(=O)Nc2ccccc21 [GW335962X] | 5.44 | 1.51 | 5.44 | 68.8% | 4 | IC50 (CDK2): 0.36 µM
CCc1cccc(NC(=O)Nc2ccc(Oc3ccc4nc(NC(=O)OC)[nH]c4c3)cc2)c1 [GW673715X] | – | – | – | – | – | pIC50 [1, 4]: < 4.52
CCN(CC)S(=O)(=O)c1ccc(OC)c(Nc2ncc(-c3ccccc3)o2)c1 [GW572401X] | – | – | – | – | – | pIC50 [1, 4]: < 4.70
NC(=O)c1cccc(Nc2nccc(Nc3cccc(F)c3)n2)c1 [GW759710A] | 6.14 | 1.21 | 6.14 | 98.6% | 4 | IC50 (LCK): 3.3 µM
O=C1Nc2ccccc2/C1=C/Nc1ccc2[nH]c(=O)[nH]c2c1 [GW284408X] | 5.39 | 1.93 | 5.39 | 37.9% | 4 | IC50 (TRKA): 0.007 µM
COc1ccc(-c2ccc3c(NC(=O)C4CC4)n[nH]c3n2)cc1 [SB-711237] | 5.64 | 0.8 | 5.64 | 44.8% | 4 | –
COC(=O)Nc1nc2ccc(Oc3ccc(NC(=O)Nc4cccc(C(=O)O)c4)cc3)cc2[nH]1 [GW701427A] | 6.92 | 1.69 | 6.92 | 102% | – | –
COc1cccc(-n2ncc3c(N/N=C/c4ccc(C(=O)NCCN(C)C)cc4)ncnc32)c1 [GW784307A] | – | – | – | – | – | pIC50 [1, 4]: 4.80
N#Cc1c(NC(=O)c2ccccc2F)sc2c1CCCC2 [GW572738X] | 6.09 | 1.66 | 6.09 | 82.6% | 4 | IC50 (JNK3): 0.4 µM
NS(=O)(=O)c1cccc(N/C=C2\C(=O)Nc3ccccc32)c1 [GW275616X] | – | – | – | – | – | pIC50 [1, 5]: 4.74
Cc1cccc(Nc2ncc(-c3ccccc3)o2)c1 [GW632046X] | 6.24 | 1.11 | 6.24 | 104% | 4 | –
c1ccc(Nc2ncc(-c3ccccc3)o2)cc1 [GW549390X] | 6.59 | 1.1 | 6.59 | 98.6% | 4 | –
COc1cccc(-n2ncc3c(N/N=C/c4ccncc4)ncnc32)c1 [GW784752X] | – | – | – | – | – | pIC50 [1, 4]: 5.19
CCn1c(-c2nonc2N)nc2cnc(Oc3cccc(NC(=O)c4ccc(N(C)C)cc4)c3)cc21 [GSK248233A] | 5.99 | 0.9 | 5.99 | 98.9% | 4 | pIC50 [1, 6]: 6.00; IC50 (RHO): 0.002 µM
N#Cc1c(NC(=O)c2ccc(F)cc2)sc2c1CCCC2 [SB-347804] | 6.04 | 1.48 | 6.04 | 72.5% | 4 | IC50 (JNK3): 3.16 µM
COC(=O)Nc1nc2cc(Oc3ccc(NC(=O)Nc4ccccc4)cc3)ccc2[nH]1 [GW694590A] | – | – | – | – | – | pIC50 [1, 5]: 4.82; pIC50 [1, 4]: 4.84; pIC50 [1, 6]: 4.85

Structure (SMILES) | pIC50 [1, 3] | FLuc Parameters Hill Coef [1] | pIC50 ([1]; Table 3, read-out: FLuc IC50) | Emax [1] | RLuc Curve Class [2] | other results
O=C(NCC1CC1)c1ccc(-c2cccc(C(=O)NC3CC3)c2)cc1 [GW806776X] | 5.04 | 1.51 | 5.04 | 35.2% | – | IC50 (p38): 0.075 µM
COc1cccc(-n2ncc3c(N/N=C/c4ccc(F)cc4)ncnc32)c1 [GW817396X] | – | – | – | – | – | pIC50 [1, 4]: 4.48
COc1cc(/C=N/Nc2ncnc3[nH]ncc23)ccc1O [GW578748X] | 5.44 | 1.33 | 5.44 | 82.3% | 4 | pIC50 [1, 4]: 5.43; IC50 (GSK3β): 3.16 µM
Cc1ccc(Nc2ccnc(Nc3cccc(C(N)=O)c3)n2)cc1O [GW575808A] | 5.84 | 1.54 | 5.84 | 106% | 4 | IC50 (LCK): 0.19 µM
O=C(Nc1n[nH]c2cc(-c3ccccc3)ccc12)C1CC1 [SB-732941] | – | – | – | – | – | pIC50 [1, 5]: 4.74
O=C1NC(=O)C(c2ccc(Cl)cc2)=C1Nc1ccc(Cl)c(C(=O)O)c1 [SB-360741] | – | – | – | – | – | FLuc IC50 [1, 7]: inactive
CS(=O)(=O)CCNCc1coc(-c2ccc3ncnc(Nc4ccc(OCc5ccccc5)cc4)c3c2)c1 [GW566221A] | – | – | – | – | – | pIC50 [1, 5]: 4.92
CC(C)c1ccc2c(c1)NC(=O)C2=NNc1ccc(S(N)(=O)=O)cc1 [GW300653X] | – | – | – | – | – | FLuc IC50 [1, 7]: Inactive
N#Cc1cccc(Nc2ncc(-c3ccccc3)o2)c1 [GW627834A] | 5.99 | 1.21 | 5.99 | 84.1% | 4 | pIC50 [1, 5]: 6.00
COc1cccc(-n2cnc3c(N/N=C/c4ccncc4)ncnc32)c1 [GW813360X] | – | – | – | – | – | pIC50 [1, 4]: 4.80
COC(=O)Nc1nc2ccc(Oc3ccc(NC(=O)Nc4cccc(Cl)c4)cc3)cc2[nH]1 [GW589961A] | – | – | – | – | – | pIC50 [1, 4]: < 4.52
COc1cccc(-c2c[nH]c3c(N/N=C/c4ccncc4)ncnc23)c1 [GW814408X] | – | – | – | – | – | pIC50 [1, 5]: 5.22; pIC50 [1, 6]: 5.24
COc1cc(Nc2ncc(-c3ccccc3)o2)cc(OC)c1 [GW631581B] | 5.19 | 1.29 | 5.19 | 88.5% | 4 | –
O=C1Nc2ccccc2/C1=C1\CCc2cc(O)ccc21 [GR105659X] | 5.29 | 1.01 | 5.29 | 103% | – | IC50 (TRKA): 0.006 µM
COC(=O)Nc1nc2cc(Oc3ccc(NC(=O)Nc4cccc(Br)c4)cc3)ccc2[nH]1 [GW694234A] | – | – | – | – | – | pIC50 [1, 4]: < 4.52
COc1cc(/C=N/Nc2ncnc3c2cnn3C(C)C)ccc1O [GW644007X] | 5.24 | 1.86 | 5.24 | 40.7% | 4 | IC50 (GSK3β): 2.51 µM
CN(c1ccc(NC(=O)Nc2c(Cl)cccc2Cl)cc1)c1ccnc(Nc2cccc(CS(C)(=O)=O)c2)n1 [GW809897X] | 6.24 | 1.11 | 6.24 | 109% | 4 | pIC50 [1, 6]: 6.25; IC50 (VEGFR): 0.065 µM
